Data as given in patent publication US20260033491A1, “FUNGAL SPORE FORMULATIONS INCLUDING CARRIER FLUIDS” (priority 2018, published 2026).

How the values were obtained:
Assay type in all cases: cell-based
[1] = test system: Penicillium bilaii spores; experiment: Spore viability (germination rate) of Penicillium bilaii spores dispersed in fluid and stored at 30° C.; details: Penicillium bilaii spores in fluid; for spore viability [%] 6 w@30° C. (41-43 d) / spore viability [%] 3 m@30° C. (83-85 d): storage at 30° C.
Description: (§1) 1.5 g of Penicillium bilaii pure spore powder were transferred into a formulation vessel (IKA Type DT-20 mixing vessel with dispersion tool for Ultra Turrax) using a sterile spoon. 13.5 mL of fluid were added into the respective formulation vessel and dispersed using ultra turrax tube drive control for 1 min at 3000 rpm; change direction after 30 sec. After this 2.8 mL were transferred in four sample bottles (Wheaton Serum vial, Type I) leaving little headspace and closed tight using crimpneck caps (Macherey—Nagel type N 13) Afterwards all sample bottles were transferred to an incubator set at 30° C. and stored for a given time.
(§2) In regular intervals a sample was retrieved from the storage location and analyzed for spore viability. Therefore the original samples were thoroughly homogenized. Aliquots of 0.25 g or 250 μL of each sample are transferred into 50 mL falcon tubes. The tubes were filled up to 25 g using a sterile aqueous solution containing 2% Tween 80 and homogenized by vortexing to achieve the first dilution step (1:100 dilution). This dilution was used for further dilution and spotting on agar.
(§3) Not all samples mixed well or mixed at all in 2% Tween 80. For these samples, an alternative dispersion/dilution method was applied where the oil phase is stripped from the spores first: 0.25 g or 250 μL of sample are weighted into a 2 mL Eppendorf tube, and 0.5 mL of 2% Tween 80 is added, and the mixture is transferred into an Eppendorf centrifuge where it is centrifuged for 1 min at 10.000 rpm. The supernatant (=upper oily phase) is discarded by using a pipette. Afterwards 250 μL of Breakthru S 240 are added and the spores are well dispersed. 250 μL or 0.25 g of each sample are transferred into a sterile 50 mL Falcon tube. The tubes were filled up to 25 g using a sterile aqueous solution containing 2% Tween 80 and homogenized by vortexing to achieve the first dilution step (1:100 dilution). This dilution is used for further dilution and spotting on agar.
(§4) For evaluation of spore germination rate prepare a 1:15000 dilution based on the 1:100 dilution achieved by multiple automated dilution (pipetting robot, 96 well plate). Afterwards 12×12 cm agar plates are taken and spotted with 10 times 5 μL of each sample using an automated 12-Channel pipet. Wait until liquid is soaked up by agar and transfer agar plate to an incubator and incubate at 20° C. for 17 hours. Open the plate and place it under the microscope. Randomly chose one area per spot and record the number of germinated and non-germinated spores that are within the designated field. At least 200 spores per sample need to be evaluated. If needed count more than one field per spot.

[2] = test system: Beauveria bassiana spores; experiment: Spore viability (germination rate) of Beauveria bassiana spores dispersed in fluid and stored at 30° C.; details: Beauveria bassiana spores in fluid; for spore viability [%] after 2 w (14 d) / spore viability [%] after 5 w (35 d): storage at 30° C.
Description: as §1, with “Beauveria bassiana” for “Penicillium bilaii”
as §2
as §3, with “For” for “Not all samples mixed well or mixed at all in 2% Tween 80. For”, “Afterwards 250 μL of Breakthru S 240 are added and the spores are well dispersed.” left out
as §4

I. fumosorosea spores = experiment: Spore viability (germination rate) of Isaria fumosorosea spores dispersed in fluid and stored at 30° C.; details: I. fumosorosea spores in fluid; for spore viability [%] after 1 m (27 d) / spore viability [%] after 7 m (210 d): storage at 30° C.
Description: as §1, with “I. fumosorosea” for “Penicillium bilaii”
as §2, with “were” for “are”
Not all samples mixed well or mixed at all in 2% Tween 80. For these samples, an alternative dispersion/dilution method was applied where the oil phase is stripped from the spores first: 0.25 g or 250 μL of sample were weighted into a 2 mL Eppendorf tube, and 0.5 mL of 2% Tween 80 was added, and the mixture was transferred into an Eppendorf centrifuge where it was centrifuged for 1 min at 10.000 rpm. The supernatant (=upper oily phase) was discarded by using a pipette. Afterwards 250 μL of Breakthru S 240 were added and the spores were well dispersed. 250 μL or 0.25 g of each sample were transferred into a sterile 50 mL Falcon tube. The tubes were filled up to 25 g using a sterile aqueous solution containing 2% Tween 80 and homogenized by vortexing to achieve the first dilution step (1:100 dilution). This dilution was used for further dilution and spotting on agar.
as §4, with “23°” for “20°”, “16” for “17”

| SMILES | spore viability [%] initial (1-2 d) [1] [%] | spore viability [%] 6 w@30° C. (41-43 d) [1] [%] | spore viability [%] 3 m@30° C. (83-85 d) [1] [%] | spore viability [%] at day 1 [2] [%] | spore viability [%] after 2 w (14 d) [2] [%] | spore viability [%] after 5 w (35 d) [2] [%] | spore viability [%] at day 1 (I. fumosorosea spores) [%] | spore viability [%] after 1 m (27 d) (I. fumosorosea spores) [%] | spore viability [%] after 7 m (210 d) (I. fumosorosea spores) [%] |
| --- | --- | --- | --- | --- | --- | --- | --- | --- | --- |
| CCCCOC(=O)CCCCC(=O)OCCCC [Adimoll DB, di-n-Butyl adipate] | 97.5 | 90.8 | 75.5 | 87 | 66.1 | 37.7 | 89.5 | 66.6 | 60.0 |
| CC(=O)OCC(COC(C)=O)OC(C)=O [Triacetin, Glycerin triacetate] | 92.9 | 83.2 | 57.6 | 89.3 | 58.6 | 31.6 | 90 | 84.0 | 69.1 |
